Data set [1] can be described thus: Chemical stability in simulated gastric fluid (SGF). The format is physicochemical. The conditions noted are these: SGF without enzymes, pH 1,4; 10 μm; 2 hours at 37° C.; substance amount remaining. The procedure: (§1) 1) Determination of chemical stability in simulated intestinal fluid, simulated gastric fluid and human blood plasma.
(§2) SGF concentrate without enzymes, pH=1,4 (Sigma Ireland, cat #01651) was used as simulated gastric fluid. Initial candidate solution (10 mM in DMSO) was diluted with a SGF working solution to a concentration of 10 μm (test solution). The test solution was incubated in a dry block thermostat for 2 hours at 37° C. SIF concentrate without enzymes, pH=6.5 (Sigma Ireland, cat #55331) was used as simulated intestinal fluid. Initial candidate solution (10 mM in DMSO) was diluted with a SIF working solution to a concentration of 10 μm (test solution). The test solution was incubated in a dry block thermostat for 2 hours at 37° C. HPLC with Agilent 1200 liquid chromatography system (Agilent, USA) was employed to determine peak areas of the compounds in test samples, said peak areas corresponding to the initial test time (prior to incubation) and the final test time (after incubation in a dry block thermostat for 2 hours at 37° C.). We used gradient elution (1 mL/min flow rate). Substance amount in % in a sample after thermostatting was determined.
(§3) The stability of the compounds was estimated.

Data set [2] in a line: Chemical stability in simulated intestinal fluid (SIF). The format is physicochemical. The conditions noted are these: SIF without enzymes, pH 6.5; 10 μm; 2 hours at 37° C.; substance amount remaining. The protocol: as §1, §2, §3
Data set [3] is described as follows: Chemical stability in human blood plasma. Format: in vitro ADME. The following applies: pooled human blood plasma; 10 μm; 4 hours at 37° C.; substance amount remaining. The gist of the method: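 Pooled plasma from ten healthy donors was spiked to 10 μM from a 10 mM DMSO stock and held 4 h at 37 °C. After acetonitrile protein precipitation, HPLC peak areas before and after incubation gave the percentage of compound remaining.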

In a further data set the target is T1, WT EGFR (Wild-Type EGFR) (Homo sapiens, UniProt P00533).
T1 construct: purchased SignalChem
In words: Inhibition of WT EGFR kinase activity (ADP-Glo). The format is biochemical. The gist of the method: (§4)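 Recombinant WT or double-mutant EGFR was incubated with a solution of 0.5 mg/mL peptide substrate and 50 μM ATP for 180 minutes at 37° C. Kinase activity was detected by ADP-Glo luminescence. IC50 values came from a four-parameter logistic fit.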
(In general: ADP-Glo first removes unused ATP, then detects ADP through luciferase.)

For data set [4], the target named is T2, DM EGFR (DoubleMutantEGFR, L828R/T790M) (Homo sapiens, UniProt P00533, L858R/T790M).
T2 construct: purchased SignalChem
The data set is described as follows: Inhibition of DM EGFR kinase activity (ADP-Glo). The format is biochemical. The conditions noted are these: for IC50: inhibition of kinase activity, EGFR DM (L828R/T790M); for SI, IC50(WT)/IC50(DM): selectivity index, kinase EGFR WT vs EGFR DM. The gist of the method: as §4

In data set [5] the test system is A549 (lung adenocarcinoma, WT). In words: Antiproliferative activity on A549 cells (Alamar Blue). The conditions noted are these: Homo sapiens, antiproliferative test. Format: cell-based. The method, boiled down:
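Cells seeded at 5*10^3/well in RPMI-1640 with 2% FBS, attached 16-18 h at 37° C, then exposed to compounds (≤1% DMSO) for 72 h. Alamar Blue added for 3-5 h; fluorescence read at 540/590 nm. IC50 from four-parameter logistic fit.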
Background: Alamar Blue is a resazurin reagent that responds to reducing activity.

The subject of data set [6] is HCC827 (lung adenocarcinoma, SM, exon19delE746-A750). In words: Antiproliferative activity on HCC827 cells (Alamar Blue). Format: cell-based. The following applies: Homo sapiens, antiproliferative test. The method, boiled down:
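HCC827 cells (EGFR exon19del E746-A750), 10×10^3/well, attached 16–18 h, then exposed to compounds for 72 h at 37 °C in RPMI-1640 with 2% FBS, ≤1% DMSO. Viability by Alamar Blue fluorescence (ex 540/em 590 nm) after 3–5 h; IC50 by four-parameter logistic fit.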

Data set [7] deals with H1975 (lung adenocarcinoma, DM, L828R/T790M). The data set is described as follows: Antiproliferative activity on H1975 cells (Alamar Blue). The following applies: for IC50: Homo sapiens, NCI-H1975, H1975 cells; for SI IC50(A549)/IC50(DM): selectivity index, A549 vs H1975 cells. The format is cell-based. The method, boiled down:
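H1975 cells (15*10^3/well) attached 16-18 h in RPMI-1640 with 2% FBS, then exposed to compounds (≤1% DMSO final) for 72 h at 37 °C. Viability by Alamar Blue fluorescence (Ex 540/Em 590 nm) after 3-5 h; IC50 from four-parameter logistic fit.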

Data set [8] is described as follows: General cytotoxicity on HepG2 cells. The format is cell-based. The following applies: human; general cytotoxicity, HepG2 cells, 72 hours, average of several tests. The gist of the method: (§5)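 HepG2 cells seeded at 2*10^4 cells per well and compounds added in DMEM with 2% FBS for 72 h at 37 °C. Viability read with Alamar Blue and CC50 derived as for IC50. Therapeutic index taken as HepG2 CC50 over H1975 IC50.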

In a further data set the test system is HepG2 cells. In words: General cytotoxicity on HepG2 cells. The conditions noted are these: therapeutic index, CC50 HepG2 / IC50 H1975. The format is cell-based. The method, boiled down:
as §5

The mark [9] stands for this setting: average values obtained in several tests, Table 16, read-out: H1975 (DM) IC50.
[10] abbreviates: antiproliferative test, Table 15, read-out: IC50 H1975 (DM).

SMILES strings stand for the structures. Read-outs that look alike come from different tables or passages of the source. Marks after values point to notes of the source that are not given here. A value given as a limit tells only on which side of the number the result lay.

Turning to `C=CC(=O)Nc1cc(Nc2nccc(C(=O)c3cccc(OC)c3)n2)c(OC)cc1N(C)CCN(C)C` [EGFR_3365_32, N-(2-((2-(dimethylamino)ethyl)(methyl)amino)-4-methoxy-5-((4-(3-methoxybenzoyl)pyrimidin-2-yl)amino)phenyl)acrylamide], the “Stability in SGF, %” value in [1] was 98.0%. The “Stability in SIF, %” value in data set [2] is 99.7%. Also, the “Stability in blood plasma, %” value in data set [3] came to 67.5%. Besides, the IC50 (in general, the concentration that gives 50% inhibition) against WT EGFR (Wild-Type EGFR) stood at 202 nM; in [4], 5.26 nM; in data set [5], 35100 nM; in [6], 11.1 nM; in [7] (setting [9]) it was 93.4 nM; in data set [7] (setting [10]), 93.4 nM. Also, the “SI, IC50(WT)/IC50(DM)” value in data set [4] amounted to 38.41. The “SI IC50(A549)/IC50(DM)” value in data set [7] is 376.12. Moreover, the CC50 (in general, the concentration at which the toxic effect on the cells reaches its halfway point) at 72 h in data set [8] is 24800 nM. In addition, in the data set with HepG2 cells, the “TI, CC50/IC50” value is reported as 265.
For `C=CC(=O)Nc1cc(Nc2nccc(C(=O)c3ccccc3OC)n2)c(OC)cc1N(C)CCN(C)C` [EGFR_3365_33, N-(2-((2-(dimethylamino)ethyl)(methyl)amino)-4-methoxy-5-((4-(2-methoxybenzoyl)pyrimidin-2-yl)amino)phenyl)acrylamide], the “Stability in SGF, %” value in [1] is given as 99.5%. The “Stability in SIF, %” value in data set [2] is reported as 96.8%. The “Stability in blood plasma, %” value in [3] is 60.5%. In addition, the IC50 on WT EGFR (Wild-Type EGFR) is 75.8 nM; in data set [4], 6.79 nM; in data set [5], greater than 10000 nM; in data set [6], 5.9 nM; in [7] (setting [9]), 5.6 nM; in data set [7] (setting [10]), 5.6 nM. For the same compound, the “SI, IC50(WT)/IC50(DM)” value in data set [4] worked out at 11.16. In addition, the “SI IC50(A549)/IC50(DM)” value in data set [7] was >1786**. In data set [8], this compound returned a CC50 at 72 h of 57600 nM. Besides, the “TI, CC50/IC50” value in the data set with HepG2 cells is 10285.
As for `C=CC(=O)Nc1cc(Nc2nccc(C(=O)c3cccc([N+](=O)[O-])c3)n2)c(OC)cc1N(C)CCN(C)C` [EGFR_3365_34], the “Stability in SGF, %” value in [1] was 99.0%. For the same compound, in [2], the “Stability in SIF, %” value is 100.0%. The “Stability in blood plasma, %” value in data set [3] was 82.7%. The IC50 was 514 nM against WT EGFR (Wild-Type EGFR); 6.95 nM in [4]; 16200 nM in data set [5]; 111 nM in data set [6]; 164 nM in data set [7] (setting [9]); 164 nM in data set [7] (setting [10]). The “SI, IC50(WT)/IC50(DM)” value in data set [4] is reported as 74.07. Further, the “SI IC50(A549)/IC50(DM)” value in data set [7] is reported as 98.26. In data set [8], this compound gave a CC50 at 72 h of 10300 nM. Moreover, the “TI, CC50/IC50” value with HepG2 cells worked out at 62.
